Results as given in patent EP4592286A1, “MACROCYCLIC NITROGEN-CONTAINING CROWN ETHER COMPOUND AND USE THEREOF AS PROTEIN KINASE INHIBITOR” (Artivila Biopharma, priority 2022, dated 2024).

How the values were obtained:
Format in all cases: biochemical
[1] = target: CDK7 (Homo sapiens, UniProt P50613); assay: experiment of inhibiting kinase activity (Caliper mobility shift assay), CDK7; conditions: read-out: inhibition rate CDK7
Experimental: (§1) The inhibition rates of tested compounds on JAK1, JAK2, JAK3, TYK2, CDK7, CDK9, EGFR (T790M) and LRRK2 kinases were measured. The test concentrations of the compounds were 10 nM and 100 nM, and the detection was performed by replicate wells. Alternatively, compounds were 3-fold serial diluted from 10 µM for 10 concentrations in replicate wells.
(§2) The inhibitory effects of the compounds on JAK1, JAK2, JAK3, CDK7 and CDK9 kinases were detected by the method of Caliper mobility shift assay. 250 nL of the compound at 100-fold final concentration was transferred to a destination plate 384-well-plate by using a liquid handler Echo 550. A kinase solution at 2.5-fold final concentration was prepared with 1×kinase buffer. 10 µL of the kinase solution with 2.5-fold final concentration was added to compound wells and positive control wells; and 10 µL of 1×kinase buffer was added to negative control wells. The mixture was centrifuged at 1000 rpm for 30 seconds and then incubated at room temperature for 10 minutes. A mixed solution of ATP and kinase substrate at 5/3-fold final concentration was prepared with 1×kinase buffer, and 15 µL of the mixed solution of ATP and substrate at 5/3-fold final concentration was added to start the reaction. The 384-well plate was centrifuged at 1000 rpm for 30 seconds, shaked and mixed evenly, then incubated at room temperature for a corresponding time. 30 µL of stop solution was added to stop the kinase reaction, the mixture was centrifuged at 1000 rpm for 30 seconds, and shaked and mixed evenly. The conversion rate was read by Caliper EZ Reader. The conversion inhibition rate%=(average positive control conversion rate%-sample conversion rate%)/(average positive control conversion rate%-average negative control conversion rate%). Where negative control wells represent the conversion readings of the background well of kinase buffer; and positive control wells represent the conversion readings of wells without compound inhibition. With the log value of concentration as the x axis and the percentage inhibition rate as the y axis, the dose-response curve was fitted by the log (inhibitor) vs. response-variable slope of the analyzing softwar GraphPad Prism 5, and the IC50 values of each compound on enzyme activity were obtained. Calculation formula is as follows: y=Bottom+(Top-Bottom)/(1+10^((LogIC50-x)×hillslope)), where x is logarithm of inhibitor concentration; and Y is % inhibition rate.

[2] = target: JAK1 (Homo sapiens, UniProt P23458); assay: experiment of inhibiting kinase activity (Caliper mobility shift assay), JAK1; conditions: for inhibition at 0.01 µM: at 10 nM; for inhibition at 0.01 µM / inhibition at 0.1 µM: read-out: inhibition rate JAK1; for inhibition at 0.1 µM: at 100 nM
Chain of JAK1 (P23458 whole entry): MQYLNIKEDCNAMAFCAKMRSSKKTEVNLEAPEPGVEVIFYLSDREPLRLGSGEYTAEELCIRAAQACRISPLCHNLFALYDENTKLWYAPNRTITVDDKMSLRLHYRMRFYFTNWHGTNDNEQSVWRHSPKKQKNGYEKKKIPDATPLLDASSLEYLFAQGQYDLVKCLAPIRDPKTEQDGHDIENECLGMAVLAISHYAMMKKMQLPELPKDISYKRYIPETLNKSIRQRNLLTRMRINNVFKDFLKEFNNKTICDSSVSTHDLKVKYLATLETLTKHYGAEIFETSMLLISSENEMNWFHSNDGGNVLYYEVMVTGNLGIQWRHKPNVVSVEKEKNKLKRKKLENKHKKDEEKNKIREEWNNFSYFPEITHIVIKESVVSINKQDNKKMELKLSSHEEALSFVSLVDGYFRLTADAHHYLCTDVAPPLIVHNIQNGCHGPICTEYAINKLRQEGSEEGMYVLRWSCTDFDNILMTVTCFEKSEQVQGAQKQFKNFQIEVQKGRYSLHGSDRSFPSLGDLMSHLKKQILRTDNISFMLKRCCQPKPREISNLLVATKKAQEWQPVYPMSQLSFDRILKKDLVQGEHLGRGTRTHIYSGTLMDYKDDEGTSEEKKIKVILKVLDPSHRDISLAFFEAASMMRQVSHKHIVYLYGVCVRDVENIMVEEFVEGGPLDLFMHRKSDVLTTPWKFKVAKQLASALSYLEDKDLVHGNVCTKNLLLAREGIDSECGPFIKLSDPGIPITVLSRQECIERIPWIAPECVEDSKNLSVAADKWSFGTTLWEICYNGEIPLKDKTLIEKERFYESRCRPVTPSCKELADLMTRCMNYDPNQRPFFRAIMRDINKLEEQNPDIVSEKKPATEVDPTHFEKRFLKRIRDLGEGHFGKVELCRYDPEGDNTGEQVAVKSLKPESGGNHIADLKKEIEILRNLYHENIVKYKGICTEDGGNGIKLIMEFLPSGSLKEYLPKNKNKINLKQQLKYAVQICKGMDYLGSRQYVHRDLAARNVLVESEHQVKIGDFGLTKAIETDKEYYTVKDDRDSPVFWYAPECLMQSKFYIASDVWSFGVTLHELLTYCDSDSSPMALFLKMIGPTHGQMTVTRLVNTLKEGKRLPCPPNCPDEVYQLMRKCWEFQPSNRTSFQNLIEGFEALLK
Experimental: as §1, §2

[3] = target: T1, JAK3 (Homo sapiens, UniProt P52333); assay: experiment of inhibiting kinase activity (Caliper mobility shift assay), JAK3; conditions: for inhibition at 0.01 µM: at 10 nM; for inhibition at 0.01 µM / inhibition at 0.1 µM: read-out: inhibition rate JAK3; for inhibition at 0.1 µM: at 100 nM
T1 sequence (P52333 1-1124): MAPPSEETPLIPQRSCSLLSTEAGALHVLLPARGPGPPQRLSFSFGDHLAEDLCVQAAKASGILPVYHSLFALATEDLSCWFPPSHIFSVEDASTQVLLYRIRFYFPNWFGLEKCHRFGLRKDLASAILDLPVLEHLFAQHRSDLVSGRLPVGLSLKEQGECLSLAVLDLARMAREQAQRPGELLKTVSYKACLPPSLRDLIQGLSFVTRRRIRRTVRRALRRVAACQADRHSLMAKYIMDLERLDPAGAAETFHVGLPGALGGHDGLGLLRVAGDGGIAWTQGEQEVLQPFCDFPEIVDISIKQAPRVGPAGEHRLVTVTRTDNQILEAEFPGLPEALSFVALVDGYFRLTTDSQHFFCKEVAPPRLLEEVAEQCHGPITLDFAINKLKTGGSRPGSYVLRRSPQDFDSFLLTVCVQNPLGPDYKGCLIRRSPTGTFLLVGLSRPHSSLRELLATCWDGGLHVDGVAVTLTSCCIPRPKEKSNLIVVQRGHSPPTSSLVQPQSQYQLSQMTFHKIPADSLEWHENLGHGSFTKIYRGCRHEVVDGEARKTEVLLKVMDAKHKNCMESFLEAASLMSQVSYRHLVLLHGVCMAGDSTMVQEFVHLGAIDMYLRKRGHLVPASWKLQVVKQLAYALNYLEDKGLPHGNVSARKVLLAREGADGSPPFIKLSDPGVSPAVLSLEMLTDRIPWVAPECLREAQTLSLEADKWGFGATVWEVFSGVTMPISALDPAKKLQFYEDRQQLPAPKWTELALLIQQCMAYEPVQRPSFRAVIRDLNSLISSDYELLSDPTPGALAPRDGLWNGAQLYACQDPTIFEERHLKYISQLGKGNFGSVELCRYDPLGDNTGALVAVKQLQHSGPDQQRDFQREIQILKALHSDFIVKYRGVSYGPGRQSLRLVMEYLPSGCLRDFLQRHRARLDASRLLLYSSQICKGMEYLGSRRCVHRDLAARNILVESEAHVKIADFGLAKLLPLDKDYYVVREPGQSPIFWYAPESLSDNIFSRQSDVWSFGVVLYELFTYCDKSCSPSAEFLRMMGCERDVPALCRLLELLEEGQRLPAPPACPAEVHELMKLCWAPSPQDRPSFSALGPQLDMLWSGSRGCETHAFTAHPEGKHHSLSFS
Experimental: as §1, §2

[4] = target: JAK2 (Homo sapiens, UniProt O60674); assay: experiment of inhibiting kinase activity (Caliper mobility shift assay), JAK2; conditions: for inhibition at 0.01 µM: at 10 nM; for inhibition at 0.01 µM / inhibition at 0.1 µM: read-out: inhibition rate JAK2; for inhibition at 0.1 µM: at 100 nM; for IC50: kinase activity assay, Table 3
Experimental: as §1, §2

[5] = target: LRRK2 (Homo sapiens, UniProt Q5S007); assay: experiment of inhibiting kinase activity, LRRK2; conditions: for inhibition at 0.01 µM: at 10 nM; for inhibition at 0.01 µM / inhibition at 0.1 µM: read-out: inhibition rate LRRK2; for inhibition at 0.1 µM: at 100 nM; for IC50: kinase activity assay, Table 3
Chain of LRRK2 (Q5S007 whole entry): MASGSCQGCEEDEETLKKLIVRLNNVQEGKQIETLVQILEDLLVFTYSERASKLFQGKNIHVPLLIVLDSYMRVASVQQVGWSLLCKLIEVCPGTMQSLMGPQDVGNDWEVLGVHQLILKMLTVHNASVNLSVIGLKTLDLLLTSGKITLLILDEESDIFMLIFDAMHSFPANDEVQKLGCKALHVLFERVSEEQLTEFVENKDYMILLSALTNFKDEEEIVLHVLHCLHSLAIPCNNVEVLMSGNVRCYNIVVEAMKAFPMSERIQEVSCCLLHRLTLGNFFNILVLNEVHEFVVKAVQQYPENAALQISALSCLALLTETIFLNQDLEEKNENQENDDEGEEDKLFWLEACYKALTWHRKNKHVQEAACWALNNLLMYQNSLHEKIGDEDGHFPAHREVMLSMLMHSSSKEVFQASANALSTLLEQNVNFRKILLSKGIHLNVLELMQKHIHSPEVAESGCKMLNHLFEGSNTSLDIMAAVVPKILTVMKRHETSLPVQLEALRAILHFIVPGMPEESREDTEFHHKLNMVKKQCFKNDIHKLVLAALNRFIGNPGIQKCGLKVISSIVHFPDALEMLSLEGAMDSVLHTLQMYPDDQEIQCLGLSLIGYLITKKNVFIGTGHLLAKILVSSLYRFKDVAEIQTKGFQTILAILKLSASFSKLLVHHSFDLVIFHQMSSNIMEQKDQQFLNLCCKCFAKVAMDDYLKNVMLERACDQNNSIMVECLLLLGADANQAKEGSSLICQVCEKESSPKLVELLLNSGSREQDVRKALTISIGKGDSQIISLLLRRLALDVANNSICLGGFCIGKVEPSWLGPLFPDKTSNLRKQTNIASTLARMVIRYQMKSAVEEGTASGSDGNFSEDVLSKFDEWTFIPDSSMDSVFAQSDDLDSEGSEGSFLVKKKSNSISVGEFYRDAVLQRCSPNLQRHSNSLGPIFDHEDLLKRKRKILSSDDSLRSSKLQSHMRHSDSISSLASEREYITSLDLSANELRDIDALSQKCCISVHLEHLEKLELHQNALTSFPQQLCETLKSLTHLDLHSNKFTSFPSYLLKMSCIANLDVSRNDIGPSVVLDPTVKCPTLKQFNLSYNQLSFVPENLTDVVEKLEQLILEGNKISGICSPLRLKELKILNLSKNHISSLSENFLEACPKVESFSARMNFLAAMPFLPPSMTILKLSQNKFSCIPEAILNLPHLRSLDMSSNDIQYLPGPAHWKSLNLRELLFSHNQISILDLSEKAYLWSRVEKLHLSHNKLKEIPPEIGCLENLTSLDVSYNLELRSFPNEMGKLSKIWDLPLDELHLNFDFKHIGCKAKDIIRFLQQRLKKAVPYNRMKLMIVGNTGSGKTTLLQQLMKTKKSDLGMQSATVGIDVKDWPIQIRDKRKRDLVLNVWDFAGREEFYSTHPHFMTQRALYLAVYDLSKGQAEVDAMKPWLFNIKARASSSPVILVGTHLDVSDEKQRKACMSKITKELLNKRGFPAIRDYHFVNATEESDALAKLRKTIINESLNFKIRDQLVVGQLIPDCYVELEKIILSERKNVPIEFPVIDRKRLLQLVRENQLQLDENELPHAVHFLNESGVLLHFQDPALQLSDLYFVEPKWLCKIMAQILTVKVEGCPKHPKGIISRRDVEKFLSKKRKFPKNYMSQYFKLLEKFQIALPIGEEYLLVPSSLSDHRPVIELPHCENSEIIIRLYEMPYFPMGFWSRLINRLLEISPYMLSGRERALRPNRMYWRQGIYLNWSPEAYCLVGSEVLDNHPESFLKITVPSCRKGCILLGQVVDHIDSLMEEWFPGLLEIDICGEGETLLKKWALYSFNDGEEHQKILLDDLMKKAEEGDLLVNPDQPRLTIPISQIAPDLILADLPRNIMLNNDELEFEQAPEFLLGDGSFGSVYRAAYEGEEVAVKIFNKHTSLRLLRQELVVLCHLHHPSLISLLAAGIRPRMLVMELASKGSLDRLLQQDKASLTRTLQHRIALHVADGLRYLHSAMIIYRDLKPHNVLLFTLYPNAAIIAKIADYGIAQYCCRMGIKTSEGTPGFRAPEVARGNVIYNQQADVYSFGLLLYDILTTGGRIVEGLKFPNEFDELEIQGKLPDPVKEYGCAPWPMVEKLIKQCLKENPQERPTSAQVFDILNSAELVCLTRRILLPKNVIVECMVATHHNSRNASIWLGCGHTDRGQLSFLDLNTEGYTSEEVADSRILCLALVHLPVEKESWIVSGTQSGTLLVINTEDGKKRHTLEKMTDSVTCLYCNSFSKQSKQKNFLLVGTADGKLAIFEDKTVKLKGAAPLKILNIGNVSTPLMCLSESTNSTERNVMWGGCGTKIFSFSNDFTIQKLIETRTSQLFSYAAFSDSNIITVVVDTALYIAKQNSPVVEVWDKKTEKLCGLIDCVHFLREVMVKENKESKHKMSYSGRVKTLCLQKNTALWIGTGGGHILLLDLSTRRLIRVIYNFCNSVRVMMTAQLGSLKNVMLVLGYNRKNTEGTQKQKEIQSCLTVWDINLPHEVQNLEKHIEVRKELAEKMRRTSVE
Experimental: as §1

[6] = target: TYK2 (Homo sapiens, UniProt P29597); assay: experiment of inhibiting kinase activity, TYK2; conditions: read-out: inhibition rate TYK2; for inhibition at 0.01 µM: at 10 nM; for inhibition at 0.1 µM: at 100 nM
Chain of TYK2 (P29597 whole entry): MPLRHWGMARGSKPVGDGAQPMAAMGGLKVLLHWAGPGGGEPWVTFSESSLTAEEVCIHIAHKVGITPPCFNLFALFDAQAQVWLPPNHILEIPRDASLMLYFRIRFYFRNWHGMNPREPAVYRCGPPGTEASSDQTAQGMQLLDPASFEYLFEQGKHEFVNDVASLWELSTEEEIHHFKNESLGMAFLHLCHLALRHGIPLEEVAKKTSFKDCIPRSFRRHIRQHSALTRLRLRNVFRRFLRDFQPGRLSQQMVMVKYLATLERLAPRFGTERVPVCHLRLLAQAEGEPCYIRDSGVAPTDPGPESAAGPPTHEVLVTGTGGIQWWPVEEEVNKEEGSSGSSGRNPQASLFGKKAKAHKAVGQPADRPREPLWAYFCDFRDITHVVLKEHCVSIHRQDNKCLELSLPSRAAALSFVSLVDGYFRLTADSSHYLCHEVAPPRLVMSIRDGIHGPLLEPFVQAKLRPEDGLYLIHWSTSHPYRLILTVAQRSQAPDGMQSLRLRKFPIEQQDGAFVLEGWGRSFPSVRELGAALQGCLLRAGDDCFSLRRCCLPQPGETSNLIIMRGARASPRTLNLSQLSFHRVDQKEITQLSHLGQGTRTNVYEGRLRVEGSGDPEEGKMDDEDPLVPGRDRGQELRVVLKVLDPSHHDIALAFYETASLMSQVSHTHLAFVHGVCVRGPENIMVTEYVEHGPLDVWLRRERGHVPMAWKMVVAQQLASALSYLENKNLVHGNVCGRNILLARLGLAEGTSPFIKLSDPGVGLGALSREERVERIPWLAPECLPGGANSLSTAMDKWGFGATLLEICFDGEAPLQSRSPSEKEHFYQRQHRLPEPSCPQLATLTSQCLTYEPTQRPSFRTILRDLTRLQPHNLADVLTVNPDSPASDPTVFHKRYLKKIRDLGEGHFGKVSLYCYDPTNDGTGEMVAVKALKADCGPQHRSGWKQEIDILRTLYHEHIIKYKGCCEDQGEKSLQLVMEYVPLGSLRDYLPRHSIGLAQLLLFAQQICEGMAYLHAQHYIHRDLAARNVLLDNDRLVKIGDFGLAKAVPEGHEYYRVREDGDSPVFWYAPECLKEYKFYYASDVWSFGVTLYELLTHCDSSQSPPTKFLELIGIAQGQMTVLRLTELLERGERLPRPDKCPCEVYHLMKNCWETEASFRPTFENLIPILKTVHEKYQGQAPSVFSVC
Experimental: as §1

| inhibition at 0.01 µM [2] | inhibition at 0.01 µM [3] | inhibition at 0.01 µM [4] | inhibition at 0.01 µM [5] | inhibition at 0.01 µM [6] | inhibition at 0.1 µM [2] | inhibition at 0.1 µM [4] | inhibition at 0.1 µM [5] | inhibition at 0.1 µM [6] | also measured | SMILES |
| --- | --- | --- | --- | --- | --- | --- | --- | --- | --- | --- |
| – | – | – | – | – | – | – | – | – | inhibition at 0.01 µM ([1]; at 10 nM): 40 to 79% | C=CC(=O)Nc1cc(C)ccc1Nc1nc(Nc2ccc3c(c2)OCCN(C)CCO3)ncc1C(F)(F)F [Example 112, N-(5-methyl-2-((2-((4-methyl-3,4,5,6-tetrahydro-2H-benzo[b][1,4,7]dioxazolin-9-yl)amino)-5-(trifluoromethyl)pyrimidin-4-yl)amino)phenyl)acrylamide] |
| 40 to 79% | 40 to 79% | > 80% | 40 to 79% | > 80% | – | – | – | – | – | CN1CCOc2ccc(Nc3nc(-c4cnn([C@H](CC#N)C5CCCC5)c4)c4cc[nH]c4n3)cc2OCC1 [Example 76, (R)-3-cyclopentyl-3-(4-(2-((4-methyl-3,4,5,6-tetrahydro-2H-benzo[b][1,4,7]dioxazolin-9-yl)amino)-7H-pyrrolo[2,3-d]pyrimidin-4-yl)-1H-pyrazol-1-yl)propanenitrile] |
| – | – | – | – | – | 40 to 79% | > 80% | 40 to 79% | 40 to 79% | inhibition at 0.1 µM [3]: 25 to 39%; IC50 [4]: < 50 nM; IC50 [5]: 50 to 200 nM | CN1CCOc2ccc(Nc3nc(-c4ccc(C(=O)NCC#N)cc4)c4cn[nH]c4n3)cc2OCC1 [Example 38, N-(cyanomethyl)-4-(6-((4-methyl-3,4,5,6-tetrahydro-2H-benzo[b][1,4,7]dioxazolin-9-yl)amino)-1H-pyrazolo[3,4-d]pyrimidin-4-yl)benzamide] |
| > 80% | > 80% | > 80% | 40 to 79% | > 80% | – | – | – | – | – | CCS(=O)(=O)N1CC(CC#N)(n2cc(-c3nc(Nc4ccc5c(c4)OCCN(C)CCOCCO5)nc4[nH]ccc34)cn2)C1 [Example 49, 2-(1-(ethylsulfonyl)-3-(4-(2-((7-methyl-2,3,6,7,8,9-hexahydro-5H-benzo[b][1,4,7]trioxa[10]azacyclododecan-12-yl)amino)-7H-pyrrolo[2,3-d]pyrimidin-4-yl)-1H-pyrazol-1-yl)azetidin-3-yl)acetonitrile] |
| – | – | > 80% | – | – | 25 to 39% | > 80% | 40 to 79% | 40 to 79% | inhibition at 0.1 µM [3]: 40 to 79%; IC50 [4]: < 50 nM | CN1CCOCCOc2cc(Nc3ncc(F)c(Nc4cccc(S(=O)(=O)NC(C)(C)C)c4)n3)ccc2OCC1 [Example 9, N-(tert-butyl)-3-((5-fluoro-2-((7-methyl-2,3,6,7,8,9-hexahydro-5H-benzo[b][1,4,7]trioxa[10]azacyclododecan-13-yl)amino)pyrimidin-4-yl)amino)benzenesulfonamide] |
| – | – | – | – | – | – | – | – | – | inhibition at 0.1 µM ([1]; at 100 nM): 25 to 39% | CN1CCOc2ccc(Nc3nc(-c4cn(C)c5ccccc45)c4cn[nH]c4n3)cc2OCC1 [Example 5, 4-methyl-N-(4-(1-methyl-1H-indol-3-yl)-1H-pyrazolo[3,4-d]pyrimidin-6-yl)-3,4,5,6-tetrahydro-2H-benzo[b][1,4,7]dioxazolin-9-amine] |
| > 80% | > 80% | > 80% | > 80% | > 80% | – | – | – | – | – | CN1CCOCCOc2ccc(Nc3nc(-c4cnn(C(CC#N)C5CCCC5)c4)c4cc[nH]c4n3)cc2OCC1 (stereo not drawn) [Example 48, 3-cyclopentyl-3-(4-(2-((7-methyl-2,3,6,7,8,9-hexahydro-5H-benzo[b][1,4,7]trioxa [10]azacyclododecan-12-yl)amino)-7H-pyrrolo[2,3-d]pyrimidin-4-yl)-1H-pyrazol-1-yl) propionitrile] |
| – | – | – | – | – | > 80% | > 80% | 40 to 79% | > 80% | IC50 ([2]; kinase activity assay, Table 3): < 50 nM; IC50 ([3]; kinase activity assay, Table 3): < 50 nM; IC50 [4]: < 50 nM; IC50 [5]: 50 to 200 nM | CCS(=O)(=O)N1CC(CC#N)(n2cc(-c3nc(Nc4ccc5c(c4)OCCN(C)CCO5)nc4[nH]ncc34)cn2)C1 [Example 29, 2-(1-(ethylsulfonyl)-3-(4-(6-((4-methyl-3,4,5,6-tetrahydro-2H-benzo[b][1,4,7]dioxazolin-9-yl)amino)-1H-pyrazolo[3,4-d]pyrimidin-4-yl)-1H-pyrazol-1-yl)azetidin-3-yl) acetonitrile] |
| 40 to 79% | 40 to 79% | > 80% | 40 to 79% | 40 to 79% | – | – | – | – | – | CN1CCOCCOc2cc(Nc3nc(-c4ccc(C(=O)NCC#N)cc4)c4cc[nH]c4n3)ccc2OCC1 [Example 17, N-(cyanomethyl)-4-(2-((7-methyl-2,3,6,7,8,9-hexahydro-5H-benzo[b][1,4,7]trioxa [10]azacyclododecan-13-yl)amino)-7H-pyrrolo[2,3-d]pyrimidin-4-yl)benzamide] |
| – | – | > 80% | – | – | 25 to 39% | > 80% | 25 to 39% | 40 to 79% | inhibition at 0.1 µM [3]: 25 to 39% | CN1CCOCCOc2ccc(Nc3ncc(F)c(Nc4cccc(S(=O)(=O)NC(C)(C)C)c4)n3)cc2OCC1 [Example 40, N-(tert-butyl)-3-((5-fluoro-2-((7-methyl-2,3,6,7,8,9-hexahydro-5H-benzo[b][1,4,7]trioxa[10]azacyclododecan-12-yl)amino)pyrimidin-4-yl)amino)benzenesulfonamide] |
| > 80% | > 80% | > 80% | > 80% | > 80% | – | – | – | – | – | CN1CCOc2ccc(Nc3nc(-c4cnn([C@@H](CC#N)C5CCCC5)c4)c4cc[nH]c4n3)cc2OCC1 [Example 77, (S)-3-cyclopentyl-3-(4-(2-((4-methyl-3,4,5,6-tetrahydro-2H-benzo[b][1,4,7]dioxazolin-9-yl)amino)-7H-pyrrolo[2,3-d]pyrimidin-4-yl)-1H-pyrazol-1-yl)propanenitrile] |
| 40 to 79% | 40 to 79% | > 80% | 25 to 39% | 25 to 39% | – | – | – | – | – | CN1CCOCCOc2ccc(Nc3nc(-c4ccc(C(=O)NCC#N)cc4)c4cc[nH]c4n3)cc2OCC1 [Example 51, N-(cyanomethyl)-4-(2-((7-methyl-2,3,6,7,8,9-hexahydro-5H-benzo[b][1,4,7]trioxa [10]azacyclododecan-12-yl)amino)-7H-pyrrolo[2,3-d]pyrimidin-4-yl)benzamide] |
